# Assays:
# [1] = tested on: animal models and myocyte cultures; conditions: compared to other hydrophobic statins; cited from earlier work
# [2] = tested on: recurrent myocardial infarction (RMI) in CARE patients; assay: CARE trial: recurrent MI in pravastatin- vs placebo-treated patients stratified by SNP genotype; type: in vivo, human; conditions: for HR, on-trial MI, Unadjusted: placebo = ref 1.00; for HR, on-trial MI, Adjusted: placebo = ref 1.00, adjusted for age, smoking, hypertension, diabetes, BMI, LDL-C, HDL-C; for OR_dom, risk of RMI / OR_het, risk of RMI / OR_maj, risk of RMI / OR_min, risk of RMI / OR, risk of RMI: placebo- vs. pravastatin-treated patients; for Risk Reduction by Statin (Pravastatin vs. Placebo) OR: odds ratio of recurrent MI, pravastatin- vs placebo-treated, heterozygous carriers of hCV3054799 only
# Text: In order to identify genetic markers associated with acute coronary events (e.g. MI, stroke, unstable angina, congestive heart failure, etc.) or response to statin treatment for the prevention of coronary events, samples were genotyped in two clinical trials: the Cholesterol and Recurrent Events (CARE) study (a randomized multicentral double-blinded trial on secondary prevention of acute coronary events with pravastatin; Sacks et al., Am. J. Cardiol. 68: 1436-1446[1991]), and the West of Scotland Coronary Prevention Study (WOSCOPS) study (Shepherd et al., N Eng J Med 333 (20), pp. 1301-7, Nov. 16, 1995; Packard et al., N Eng J Med 343 (16), pp. 1148-55, Oct. 19, 2000).
# A well-documented myocardial infarction (MI) was one of the enrollment criteria for entry into the CARE study. Patients were enrolled in the CARE trial from 80 participating study centers. […] Patients were randomized to receive either 40 mg of pravastatin once daily or a matching placebo. The primary endpoint of the trial was death from coronary heart disease and the median duration of follow-up was 5.0 years (range, 4.0 to 6.2 years). All individuals included in the study had signed informed consent forms and the study protocol was approved by the respective Institutional Review Boards (IRBs).
# For genotyping SNPs in CARE patient samples, DNA was extracted from blood samples using conventional DNA extraction methods such as the QIAamp kit from Qiagen. Genotypes were obtained by a method similar to that described by Lannone (M. A. Lannone et al., Cytometry 39(2):131-140 [Feb. 1, 2000]; also described in section “SNP DETECTION REAGENTS,” supra). Briefly, target DNA was amplified by multiplex PCR, the amplified product was submitted to a multiplex oligo ligation assay (OLA), the specific ligated products were hybridized to unique universal “ZIP code” oligomer sequences covalently attached to Luminex xMAP® Multi-Analyte COOH Microspheres, and these hybridization products/microspheres were detected in a rapid automated multiplex system using the Luminex 100 instrument. Alternatively, allele specific primers were designed for detecting each SNP and genotypes were obtained on an ABI PRISM® 7900HT Sequence Detection PCR system (Applied Biosystems) by allele-specific PCR, similar to the method described by Germer et al (Germer S., Holland M. J., Higuchi R. 2000, Genome Res. 10: 258-266). […]
# In analyzing the CARE patients, statistical analysis was performed with SAS version 9. Cox proportional hazard models (Wald tests) were used in CARE to assess the association of genotype with both the risk of incident MI in the placebo arm and the effect of on MI pravastatin compared to placebo in subgroups defined by genotypes. In analyzing the WOSCOPS patients, a conditional logistic regression model was used in WOSCOPS given that the controls had been previously matched to the cases. The column entitled “On-trial MI” lists the number of patients who suffered an RMI during the clinical trial period.
# An additional 175 markers were analyzed in samples from the CARE study (secondary MI prevention trial). […] Of the cases, 150 received placebo treatment and 114 received pravastatin; of the controls, 1290 received placebo and 1359 received pravastatin.
# The genotypes for each SNP were tested for association with RMI. This genotypic test of association (i.e., minor homozygote genotype vs. major, and heterozygote vs. major) was performed separately for placebo-treated patients and for all patients unstratified by treatment group, using the Fisher's exact method. […] The reliability of the OR for each particular SNP is confirmed by its respective 95% confidence interval (CI) and P value, also shown. From Table 14 one can see the association of several SNPs with MI risk when they are present in a Homozygous Minor genotype (association based on an OR>1, the lower limit of the 95% CI>1 and a P value <0.05). […]
# [3] = marker hCV2741051, heterozygous
# [4] = marker hCV2741051, major homozygous
# [5] = marker hCV2741051, minor homozygous
# [6] = marker hCV25745415, heterozygous
# [7] = marker hCV25745415, major homozygous
# [8] = marker hCV25745415, minor homozygous
smiles,measurement,setting,value
CC[C@H](C)C(=O)O[C@H]1C[C@H](O)C=C2C=C[C@H](C)[C@H](CC[C@@H](O)C[C@@H](O)CC(=O)O)[C@H]21 [pravastatin],myopathic potential,[1],low myopathic potential
same,"HR, on-trial MI, Unadjusted",[2]; KIF6 hCV3054799 AA,0.86
same,"HR, on-trial MI, Adjusted",[2]; KIF6 hCV3054799 AA,0.80
same,"HR, on-trial MI, Unadjusted",[2]; KIF6 hCV3054799 GG + GA,0.63
same,"HR, on-trial MI, Adjusted",[2]; KIF6 hCV3054799 GG + GA,0.63
same,"OR_dom, risk of RMI","[2]; marker hCV465412, Dominant",0.50
same,"OR_het, risk of RMI","[2]; marker hCV465412, Heterozygous",0.47
same,"OR_maj, risk of RMI","[2]; marker hCV465412, Major Homozygous",0.80
same,"OR_min, risk of RMI","[2]; marker hCV465412, Minor Homozygous",1.35
same,"OR, risk of RMI","[2]; marker hCV881283, heterozygous",0.19
same,"OR, risk of RMI","[2]; marker hCV881283, major homozygous",0.76
same,"OR, risk of RMI","[2]; marker hCV881283, minor homozygous",0.00
same,"OR, risk of RMI","[2]; marker hCV1603656, heterozygous",0.33
same,"OR, risk of RMI","[2]; marker hCV1603656, major homozygous",0.87
same,"OR, risk of RMI","[2]; marker hCV1603656, minor homozygous",0.00
same,"OR_dom, risk of RMI","[2]; marker hCV2741051, Dominant",1.07
same,"OR, risk of RMI",[2]; [3],1.02
same,"OR_het, risk of RMI",[2]; [3],1.02
same,"OR, risk of RMI",[2]; [4],0.55
same,"OR_maj, risk of RMI",[2]; [4],0.55
same,"OR, risk of RMI",[2]; [5],1.68
same,"OR_min, risk of RMI",[2]; [5],1.68
same,"OR_dom, risk of RMI","[2]; marker hCV3054799, Dominant",0.65
same,"OR_het, risk of RMI","[2]; marker hCV3054799, Heterozygous",0.57
same,"OR_maj, risk of RMI","[2]; marker hCV3054799, Major Homozygous",0.98
same,"OR_min, risk of RMI","[2]; marker hCV3054799, Minor Homozygous",1.00
same,"OR_dom, risk of RMI","[2]; marker hCV7514870, Dominant",0.69
same,"OR_het, risk of RMI","[2]; marker hCV7514870, Heterozygous",0.83
same,"OR_maj, risk of RMI","[2]; marker hCV7514870, Major Homozygous",0.80
same,"OR_min, risk of RMI","[2]; marker hCV7514870, Minor Homozygous",0.37
same,"OR_dom, risk of RMI","[2]; marker hCV11450617, Dominant",0.62
same,"OR_het, risk of RMI","[2]; marker hCV11450617, Heterozygous",0.61
same,"OR_maj, risk of RMI","[2]; marker hCV11450617, Major Homozygous",0.78
same,"OR_min, risk of RMI","[2]; marker hCV11450617, Minor Homozygous",0.68
same,"OR, risk of RMI","[2]; marker hCV12107274, heterozygous",0.78
same,"OR, risk of RMI","[2]; marker hCV12107274, major homozygous",0.55
same,"OR, risk of RMI","[2]; marker hCV12107274, minor homozygous",1.75
same,"OR, risk of RMI","[2]; marker hCV15965459, heterozygous",0.35
same,"OR, risk of RMI","[2]; marker hCV15965459, major homozygous",0.82
same,"OR, risk of RMI","[2]; marker hCV15965459, minor homozygous",0.95
same,"OR_dom, risk of RMI","[2]; marker hCV15973230, Dominant",0.91
same,"OR_het, risk of RMI","[2]; marker hCV15973230, Heterozygous",0.91
same,"OR_maj, risk of RMI","[2]; marker hCV15973230, Major Homozygous",0.60
same,"OR_min, risk of RMI","[2]; marker hCV15973230, Minor Homozygous",0.71
same,"OR, risk of RMI","[2]; marker hCV15974589, heterozygous",0.67
same,"OR, risk of RMI","[2]; marker hCV15974589, major homozygous",0.43
same,"OR, risk of RMI","[2]; marker hCV15974589, minor homozygous",1.51
same,"OR, risk of RMI","[2]; marker hCV16054991, heterozygous",0.53
same,"OR, risk of RMI","[2]; marker hCV16054991, major homozygous",0.88
same,"OR, risk of RMI","[2]; marker hCV16054991, minor homozygous",0.43
same,"OR, risk of RMI","[2]; marker hCV25472673, heterozygous",0.61
same,"OR, risk of RMI","[2]; marker hCV25472673, major homozygous",1.13
same,"OR, risk of RMI","[2]; marker hCV25472673, minor homozygous",0.49
same,"OR, risk of RMI","[2]; marker hCV25623506, heterozygous",3.29
same,"OR, risk of RMI","[2]; marker hCV25623506, major homozygous",0.65
same,"OR, risk of RMI","[2]; marker hCV25623506, minor homozygous",0.00
same,"OR_dom, risk of RMI","[2]; marker hCV25745415, Dominant",0.92
same,"OR, risk of RMI",[2]; [6],0.73
same,"OR_het, risk of RMI",[2]; [6],0.73
same,"OR, risk of RMI",[2]; [7],0.56
same,"OR_maj, risk of RMI",[2]; [7],0.56
same,"OR, risk of RMI",[2]; [8],5.87
same,"OR_min, risk of RMI",[2]; [8],5.87
same,"OR, risk of RMI","[2]; marker hCV25749177, heterozygous",0.74
same,"OR, risk of RMI","[2]; marker hCV25749177, major homozygous",0.57
same,"OR, risk of RMI","[2]; marker hCV25749177, minor homozygous",2.81
same,"OR_dom, risk of RMI","[2]; marker hCV25963691, Dominant",0.64
same,"OR_het, risk of RMI","[2]; marker hCV25963691, Heterozygous",0.62
same,"OR_maj, risk of RMI","[2]; marker hCV25963691, Major Homozygous",0.71
same,"OR_min, risk of RMI","[2]; marker hCV25963691, Minor Homozygous",0.72
same,Risk Reduction by Statin (Pravastatin vs. Placebo) OR,[2],approximately 0.5
same,Risk Reduction by Statin (Pravastatin vs. Placebo) OR,[2]; listed as Pravastatin,0.54

# From US7799530B2, “Genetic polymorphisms associated with cardiovascular disorders and drug response, methods of detection and uses thereof” (Celera Corporation, priority 2005, dated 2010)
